Data taken from patent US10383848B2, “Indole-based therapeutics” (Creighton University, priority 2016, dated 2019).
Values after ≈ are worked out from the molar mass of the structure shown. Where two headings read alike, the source gives them in different places.

Columns and labels:
M. abscessus ATCC 19977 = test: MIC, resazurin microtiter assay; assay type: cell-based; details: Mycobacteroides abscessus
M. abscessus DCI #21 = test: MIC, resazurin microtiter assay; assay type: cell-based; details: for MIC: Mycobacteroides abscessus, read-out: MIC M. abscessus DCI #21; for Selectivity Index (TD50/MIC) M. abscessus DCI #21: TD50 in THP-1 cells
[1] = system: M. massiliense CIP 108297; test: MIC, resazurin microtiter assay; assay type: cell-based; details: Mycobacteroides abscessus
M. massiliense CRM 0019 = test: MIC, resazurin microtiter assay; assay type: cell-based; details: for MIC: Mycobacteroides abscessus; for Selectivity Index (TD50/MIC) M. Massiliense CRM0019: TD50 in THP-1 cells
M. bolletii ATCC 14472 = test: MIC, resazurin microtiter assay; assay type: cell-based; details: for MIC: Mycobacteroides abscessus; for Selectivity Index (TD50/MIC) M. bolletii: TD50 in THP-1 cells
M. chelonae ATCC 35752 = test: MIC, resazurin microtiter assay; assay type: cell-based; details: for MIC: Mycobacteroides chelonae
[2] = system: M. tuberculosis H37Rv mc^26206; test: microbe, parasite or virus in culture; assay type: cell-based; details: for MIC: Mycobacterium tuberculosis, H37RV, read-out: MIC M. tb H37 Rv (mc2-6206); for Selectivity Index (TD50/MIC) M. tb H37Rv: TD50 in THP-1 cells
M. smegmatis mc^2155 = test: MIC, resazurin microtiter assay; assay type: cell-based; details: Mycolicibacterium smegmatis
M. avium 104 = test: MIC, resazurin microtiter assay; assay type: cell-based
M. intracellulare 1956 = test: MIC, resazurin microtiter assay; assay type: cell-based; details: read-out: MIC M. avium Intracellulare 1956
M. xenopi WT = test: MIC, resazurin microtiter assay; assay type: cell-based; details: Mycobacterium xenopi, read-out: MIC M. xenopi WT
P. aeruginosa PAO-1 = test: MIC, resazurin microtiter assay; assay type: cell-based, Pseudomonas aeruginosa; details: for MIC: Pseudomonas aeruginosa
S. aureus ATCC25923 = test: MIC, resazurin microtiter assay; assay type: cell-based; details: Staphylococcus aureus
mycobacteria = test: organism not typed; assay type: cell-based; details: lowest concentration reducing CFU by 90% relative to the inoculum; strain not stated; read-out: MBC90
THP-1 cells = test: Cytotoxicity assay, THP-1 cell viability (CellTiter-Glo); assay type: cell-based, human; details: 3 days
Experimental: The cytotoxicity of compounds was determined by measuring THP-1 cell viability after 3 days in the presence of test compounds. Compounds were prepared as 10-point serial dilutions in DMSO. The highest concentration of compound tested was 50 μM where compounds were soluble in DMSO at 10 mM. THP-1 cells were cultured in complete RPMI and differentiated into macrophage-like cells using 80 nM PMA overnight at 37° C., 5% CO2. Cells were inoculated into assay plates and cultured for 24 h before compound dilutions were added to a final DMSO concentration of 0.5%. Each run included staurosporine as a control. Assay plates were incubated for 3 days at 37° C., 5% CO2, growth was measured using the CellTiter-Glo® Luminescent Cell Viability Assay (Promega) which uses ATP as an indicator of cell viability. Relative luminescent units (RLU) were measured using a Biotek Synergy 4 plate reader. The dose response curve was fitted using the Levenberg-Marquardt algorithm.

M. abscessus 103 [3] = test: MIC/MBC by microbroth dilution (MH or 7H9 broth); assay type: cell-based, M. abscessus subsp. bolletii
M. abscessus 1513 = test: MIC/MBC by microbroth dilution (MH or 7H9 broth); assay type: cell-based, M. abscessus subsp. abscessus
[4] = system: M. massiliense strain 1513; test: Metabolic labeling and mycolic acid analysis; details: 4x and 10x MIC, 16 hr, [1,2-14C]acetate labeling, TLC
Experimental: Cultures of M. massiliense 1513 grown to mid log-phase in Mueller-Hinton II broth were incubated with different concentrations of inhibitors for 16 hr at 37° C. with shaking. 0.5 μCi/mL [1,2-^14C]acetic acid (specific activity, 52 Ci/mol, PerkinElmer Inc.) was added at the same time as the inhibitors. Total lipids and cell wall-bound mycolic acid methyl esters were prepared from treated and untreated cells and analyzed by TLC as described in Grzegorzewicz et al, Nature Chemical Biology, 2012, 8:334+341.

[5] = In vivo acute toxicity assay (Maximum Tolerated Dose); parameters: species or system Balb/C mice; details: 100, 200 and 300 mg/kg for 3 consecutive days of dosing, gavage, mice
Experimental: 6-8 week old Balb/C female mice were ordered from Charles River. Mice were rested one to two weeks before dosing. For each dose of compound, 3 mice were utilized. […] Compound was given twice per day for 3 consecutive days by gavage, at 100 μl/mouse. Compounds were prepared the day before or the day of dosing and stored at 4° C. until dosing. The time of dosing was recorded for each mouse. Observations were recorded immediately, at 10 min, 1 hour, 2 hours, 4 hours, and 24 hours after dosing. […] Mice were dosed for three days and on the fourth day mice were observed twice daily for two days, then once daily for five days.
As an initial in vivo study, the safety of compounds and preliminary pharmacokinetics was assessed in an acute toxicity mouse model (Maximum Tolerated Dose assay, MTD) to evaluate any potential adverse effects and determine a safe dose for mouse efficacy studies. Compounds were tested to ensure safe use in healthy mice prior to any further in vivo testing. […] Novel compounds were generally administered to mice at 40, 75 and 100 mg/kg in a tested formulation, administered on three consecutive days, 3 mice per dose group, in the chosen formulation. […] Mice were observed 10 min, 1, 2, 4 hours after dosing and then daily afterwards. During the observations, humane handling practices and animal welfare regulations were strictly followed. […]

M. abscessus 103 [6] = test: Acute SCID mouse infection efficacy model
[7] = SCID mice i.v. infected with M. abscessus 103, compounds 300 mg/kg PO in 20% cyclodextrin, AMI 150 mg/kg SQ, once daily 8 days
[8] = infected SCID mice, daily 300 mg/kg in 20% cyclodextrin

With `C[C@@H]1[C@H]2C[C@@H](C[C@H]1NC(=O)c1cc3ccccc3[nH]1)C2(C)C` [Compound 16, N-((1R,2R,3R,5S)-2,6,6-trimethylbicyclo[3.1.1]heptan-3-yl)-1H-indole-2-carboxamide] the MIC (M. abscessus ATCC 19977; ATCC19977, Mueller Hinton II, read-out: MIC M. abscessus ATCC 19977) was 0.12 µg/mL (≈ 0.405 µM), the MIC (M. abscessus DCI #21; Mueller Hinton II) was 0.5 µg/mL (≈ 1.69 µM) and the “Selectivity Index (TD50/MIC) M. abscessus DCI #21” value (M. abscessus DCI #21) was 22.6. The MIC ([1]; CIP108297, Mueller Hinton II, read-out: MIC M. massiliense CIP 108297) was 0.06 µg/mL (≈ 0.202 µM), the MIC (M. massiliense CRM 0019; CRM0019, Mueller Hinton II, read-out: MIC M. massiliense CRM 0019) was 0.06 µg/mL (≈ 0.202 µM) and the “Selectivity Index (TD50/MIC) M. Massiliense CRM0019” value (M. massiliense CRM 0019) was 188. The MIC (M. bolletii ATCC 14472; ATCC14472, Mueller Hinton II, read-out: MIC M. bolletii ATCC 14472) was 0.12 µg/mL (≈ 0.405 µM), the “Selectivity Index (TD50/MIC) M. bolletii” value (M. bolletii ATCC 14472) was 92 and the MIC (M. chelonae ATCC 35752; ATCC35752, Mueller Hinton II, read-out: MIC M. chelonae ATCC 35752) was under 0.06 µg/mL. For the same compound, the “Selectivity index (TD50/MIC)” value (M. chelonae ATCC 35752; TD50 in THP-1 cells) was over 188, the MIC [2] was 0.05 µg/mL (≈ 0.169 µM) and the “Selectivity Index (TD50/MIC) M. tb H37Rv” value [2] was 226. It also gave an MIC (M. smegmatis mc^2155; MC^2155, 7H9-ADC-0.05% Tween 80, read-out: MIC M. smeg. mc^2155) of 0.78 µg/mL (≈ 2.63 µM), an MIC (M. avium 104; Mycobacterium avium, 104, Mueller Hinton II, read-out: MIC M. avium 104) of 8 µg/mL (≈ 27 µM) and an MIC (M. intracellulare 1956; Mueller Hinton II) of 8 µg/mL (≈ 27 µM). For the same compound, the MIC (M. xenopi WT; Mueller Hinton II) was 0.5 to 1 µg/mL (≈ 1.69 to 3.37 µM), the “MIC P. aeruginosa PAO-1” value (P. aeruginosa PAO-1; Mueller Hinton II) was “inactive” and the MIC (P. aeruginosa PAO-1; PAO1, Mueller Hinton II, read-out: MIC P. aeruginosa PAO-1) was over 160 µg/mL. It also gave an MIC (S. aureus ATCC25923; ATCC25923, Mueller Hinton II, read-out: MIC S. aureus ATCC25923) of 40 µg/mL (≈ 135 µM), an MBC (mycobacteria) of 0.06 µg/mL (≈ 0.202 µM) and a TD50 (THP-1 cells) of 11.3 µg/mL. For the same compound, the MIC (M. abscessus 103 [3]; Mycobacteroides abscessus, 103; read-out: MIC M. abscessus 103, 7H9 Broth) was over 64 µg/mL, the MIC (M. abscessus 103 [3]; Mycobacteroides abscessus, 103; read-out: MIC M. abscessus 103, MH Broth) was 16 µg/mL (≈ 54 µM) and the MIC (M. abscessus 1513; Mycobacteroides abscessus, 1513; read-out: MIC M. abscessus 1513, 7H9 Broth) was over 64 µg/mL. The MIC (M. abscessus 1513; Mycobacteroides abscessus, 1513; read-out: MIC M. abscessus 1513, MH Broth) was over 64 µg/mL and the “TMM build-up and mycolic acid transfer onto arabinogalactan and TDM” value [4] was “concentration-dependent build-up of TMM”.

In the case of `O=C(NC12CC3CC(CC(C3)C1)C2)c1cc2ccccc2[nH]1` [Compound 5, N-(1-adamantyl)-1H-indole-2-carboxamide], the MIC (M. abscessus ATCC 19977; ATCC19977, read-out: MIC M. abscessus ATCC 19977) is reported as 0.25 µg/mL (≈ 0.849 µM), the MIC (M. abscessus DCI #21) is reported as 0.25 µg/mL (≈ 0.849 µM) and the “Selectivity Index (TD50/MIC) M. abscessus DCI #21” value (M. abscessus DCI #21) is reported as over 58. For the same compound, the MIC ([1]; CIP108297, read-out: MIC M. massiliense CIP 108297) was 0.5 µg/mL (≈ 1.7 µM), the MIC (M. massiliense CRM 0019; CRM0019, read-out: MIC M. massiliense CRM 0019) was 0.25 µg/mL (≈ 0.849 µM) and the “Selectivity Index (TD50/MIC) M. Massiliense CRM0019” value (M. massiliense CRM 0019) was over 58. The MIC (M. bolletii ATCC 14472; ATCC14472, read-out: MIC M. bolletii ATCC 14472) was 0.25 µg/mL (≈ 0.849 µM), the “Selectivity Index (TD50/MIC) M. bolletii” value (M. bolletii ATCC 14472) was over 58 and the MIC (M. chelonae ATCC 35752; ATCC35752, read-out: MIC M. chelonae ATCC 35752) was 0.25 µg/mL (≈ 0.849 µM). The MIC [2] was 0.2 µg/mL (≈ 0.679 µM), the “Selectivity Index (TD50/MIC) M. tb H37Rv” value [2] was over 73 and the MIC (M. smegmatis mc^2155; MC^2155, read-out: MIC M. smeg. mc^2155) was 1.56 µg/mL (≈ 5.3 µM). For the same compound, the MIC (M. avium 104; Mycobacterium avium, 104, read-out: MIC M. avium 104) was 8 µg/mL (≈ 27.2 µM), the MIC (M. intracellulare 1956) was 8 µg/mL (≈ 27.2 µM) and the MIC (M. xenopi WT) was 0.5 to 1 µg/mL (≈ 1.7 to 3.4 µM). The “MIC P. aeruginosa PAO-1” value (P. aeruginosa PAO-1; Mueller Hinton II) was “inactive”, the MIC (P. aeruginosa PAO-1; PAO1, read-out: MIC P. aeruginosa PAO-1) was over 160 µg/mL and the MIC (S. aureus ATCC25923; ATCC25923, read-out: MIC S. aureus ATCC25923) was over 160 µg/mL. It also gave a TD50 (THP-1 cells) of over 14.7 µg/mL, an MIC (M. abscessus 103 [3]; Mycobacteroides abscessus, 103, read-out: MIC M. abscessus 103, 7H9 Broth) of over 64 µg/mL and an MIC (M. abscessus 103 [3]; Mycobacteroides abscessus, 103, read-out: MIC M. abscessus 103, MH Broth) of 16 µg/mL (≈ 54.3 µM). The MIC (M. abscessus 1513; Mycobacteroides abscessus, 1513, read-out: MIC M. abscessus 1513, 7H9 Broth) was over 64 µg/mL, the MIC (M. abscessus 1513; Mycobacteroides abscessus, 1513, read-out: MIC M. abscessus 1513, MH Broth) was 32 µg/mL (≈ 109 µM) and the “Tolerability (acute toxicity, MTD)” value [5] was “well tolerated”. For the same compound, the “log10 CFU liver counts on day 12” value (M. abscessus 103 [6]; [7]) was 5.30±0.23 log10 CFU, the “log10 CFU spleen counts on day 12” value (M. abscessus 103 [6]; [7]) was 3.79±0.40 log10 CFU and the “Survival until the Day 12 endpoint” value (M. abscessus 103 [6]; [8]) was “all animals survived”. For the same compound, the Weight loss (M. abscessus 103 [6]; [8]) was “didn't demonstrate any significant weight loss” and the “TMM build-up and mycolic acid transfer onto arabinogalactan and TDM” value [4] was “concentration-dependent build-up of TMM”.
